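Following 48 hours of exposure in 96-well plates, responses at five concentrations were used to interpolate endpoints linearly. TGI is the concentration that stops growth completely.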
Assays:
Test in all cases: NCI anticancer screen, dose series, 48 h
786-0 renal = test system: 786-0 renal
A498 renal = test system: A498 renal
A549 NSCLC = test system: A549 NSCLC
ACHN renal = test system: ACHN renal
CAKI-1 renal = test system: CAKI-1 renal
CCRF-CEM leukemia = test system: CCRF-CEM leukemia
COLO 205 colon = test system: COLO 205 colon
DLD-1 colon = test system: DLD-1 colon
DMS 114 small cell lung = test system: DMS 114 small cell lung
DMS 273 small cell lung = test system: DMS 273 small cell lung
EKVX NSCLC = test system: EKVX NSCLC
HCT-116 colon = test system: HCT-116 colon
HCT-15 colon = test system: HCT-15 colon
HOP-18 NSCLC = test system: HOP-18 NSCLC
HOP-62 NSCLC = test system: HOP-62 NSCLC
HOP-92 NSCLC = test system: HOP-92 NSCLC
HT29 colon = test system: HT29 colon
IGROV1 ovarian = test system: IGROV1 ovarian
K-562 leukemia = test system: K-562 leukemia
KM12 colon = test system: KM12 colon
KM20L2 colon = test system: KM20L2 colon
LOX IMVI melanoma = test system: LOX IMVI melanoma
LXFL 529 NSCLC = test system: LXFL 529 NSCLC
M14 melanoma = test system: M14 melanoma
M19-MEL melanoma = test system: M19-MEL melanoma
MALME-3M melanoma = test system: MALME-3M melanoma
MOLT-4 leukemia = test system: MOLT-4 leukemia
NCI-H23 lung = test system: NCI-H23 lung
NCI-H460 lung = test system: NCI-H460 lung
NCI-H522 lung = test system: NCI-H522 lung
OVCAR-3 ovarian = test system: OVCAR-3 ovarian
OVCAR-4 ovarian = test system: OVCAR-4 ovarian
OVCAR-5 ovarian = test system: OVCAR-5 ovarian
OVCAR-8 ovarian = test system: OVCAR-8 ovarian
RPMI-8226 leukemia = test system: RPMI-8226 leukemia
RXF 393 renal = test system: RXF 393 renal
SF-268 CNS = test system: SF-268 CNS
SF-295 CNS = test system: SF-295 CNS
SF-539 CNS = test system: SF-539 CNS
SK-MEL-2 melanoma = test system: SK-MEL-2 melanoma
SK-MEL-28 melanoma = test system: SK-MEL-28 melanoma
SK-MEL-5 melanoma = test system: SK-MEL-5 melanoma
SK-OV-3 ovarian = test system: SK-OV-3 ovarian
SN12C renal = test system: SN12C renal
SNB-19 CNS = test system: SNB-19 CNS
SNB-75 CNS = test system: SNB-75 CNS
SNB-78 CNS = test system: SNB-78 CNS
SW-620 colon = test system: SW-620 colon
TK-10 renal = test system: TK-10 renal
U251 CNS = test system: U251 CNS
UACC-257 melanoma = test system: UACC-257 melanoma
UACC-62 melanoma = test system: UACC-62 melanoma
UO-31 renal = test system: UO-31 renal
XF 498 CNS = test system: XF 498 CNS
HCC-2998 colon = test system: HCC-2998 colon
HL-60(TB) leukemia = test system: HL-60(TB) leukemia
NCI-H226 lung = test system: NCI-H226 lung

Measured: TGI

Cc1cc(NS(=O)(=O)c2ccc(Nc3c4ccccc4nc4c(C(=O)Nc5ccc(S(N)(=O)=O)cc5)cccc34)cc2)no1
54.1 µM: NCI-H522 lung
> 100 µM: 786-0 renal | A498 renal | A549 NSCLC | ACHN renal | CAKI-1 renal | COLO 205 colon | DLD-1 colon | DMS 273 small cell lung | EKVX NSCLC | HCT-116 colon | HCT-15 colon | HOP-18 NSCLC | HOP-62 NSCLC | HT29 colon | IGROV1 ovarian | K-562 leukemia | KM20L2 colon | LOX IMVI melanoma | M14 melanoma | NCI-H23 lung | NCI-H460 lung | OVCAR-5 ovarian | OVCAR-8 ovarian | RPMI-8226 leukemia | RXF 393 renal | SF-268 CNS | SF-295 CNS | SK-MEL-5 melanoma | SK-OV-3 ovarian | SN12C renal | SNB-75 CNS | SW-620 colon | TK-10 renal | UACC-257 melanoma | UO-31 renal
57.4 µM: U251 CNS
50.6 µM: KM12 colon
55.8 µM: UACC-62 melanoma
31.7 µM: OVCAR-3 ovarian
64.8 µM: M19-MEL melanoma
51.1 µM: OVCAR-4 ovarian
53.1 µM: MALME-3M melanoma
69.3 µM: SK-MEL-2 melanoma
83.9 µM: SK-MEL-28 melanoma
81.6 µM: HOP-92 NSCLC
79.9 µM: CCRF-CEM leukemia
84.9 µM: SNB-19 CNS
77.3 µM: DMS 114 small cell lung
60 µM: SNB-78 CNS
57.9 µM: XF 498 CNS
44.8 µM: LXFL 529 NSCLC
61.2 µM: SF-539 CNS
78.9 µM: MOLT-4 leukemia

CN(C)c1nc(=Nc2ccc3c(c2)OCO3)ss1
57.8 µM: RPMI-8226 leukemia
66 µM: SNB-75 CNS
78.4 µM: MOLT-4 leukemia
83.3 µM: UO-31 renal
60 µM: HL-60(TB) leukemia
> 100 µM: 786-0 renal | A498 renal | A549 NSCLC | ACHN renal | CAKI-1 renal | CCRF-CEM leukemia | DLD-1 colon | DMS 114 small cell lung | DMS 273 small cell lung | EKVX NSCLC | HCC-2998 colon | HCT-116 colon | HCT-15 colon | HOP-18 NSCLC | HOP-62 NSCLC | HOP-92 NSCLC | HT29 colon | IGROV1 ovarian | K-562 leukemia | KM12 colon | KM20L2 colon | LOX IMVI melanoma | LXFL 529 NSCLC | M14 melanoma | M19-MEL melanoma | MALME-3M melanoma | NCI-H226 lung | NCI-H23 lung | NCI-H460 lung | NCI-H522 lung | OVCAR-4 ovarian | OVCAR-5 ovarian | OVCAR-8 ovarian | RXF 393 renal | SF-268 CNS | SF-295 CNS | SF-539 CNS | SK-MEL-2 melanoma | SK-MEL-28 melanoma | SK-MEL-5 melanoma | SK-OV-3 ovarian | SN12C renal | SNB-19 CNS | SNB-78 CNS | SW-620 colon | TK-10 renal | U251 CNS | UACC-257 melanoma | UACC-62 melanoma | XF 498 CNS
